Data published in patent publication US20250041262A1, “COMPOSITIONS FOR THE TREATMENT OF FGFR3-RELATED COGNITIVE DEFICITS WITH A CATECHIN” (INSTITUT NATIONAL DE LA SANTÉ ET DE LA RECHERCHE MÉDICALE, priority 2021, published 2025).

Key:
[1] = tested on: Fgfr3^A385E/+ mice (CAN mouse model); assay: Novel object recognition (NOR), CAN mouse model; format: in vivo; conditions: subcutaneous injections for 7 days at least; 4-month-old mice
Protocol: (§1) 4 months old Fgfr3^N534K/+ mice and Fgfr3^A385E/+ mice received daily subcutaneous administration of (−)-epicatechin (0.15 mg/kg) or vehicle (HcL 3.5 mM, DMSO 2%) for at least seven days. For habituation and testing NOR and NOL, injection was performed 1 hour before testing phase. Timing of injection for the different tests: NOL at 7 days, NOR at 14 days, TST: at 22 days and FST at 24 days.
(§2) We used a modified version of the NOR task as described in Glatigny et al., 2019. Mice were transported a short distance from the holding mouse facility to the testing room in their home cages and left undisturbed for at least one hour before the beginning of the test. The testing room was lit with two 60-W light bulbs and behavior sessions were recorded with a camera above the testing arena (grey plastic box (60×40×32 cm)). […] The objects elicited equal levels of exploration as determined in pilot experiments and training phase. […]
(§3) The following behaviors were considered as exploration of the objects: sniffing, licking, or touching the object with the nose or with the front legs or directing the nose to the object at a distance≤1 cm. Investigation was not scored if the mouse was on top of the object or completely immobile. The discrimination index was calculated as (time spent exploring the new object-time spent exploring the familiar object)/(total time spent exploring both objects). […]

[2] = tested on: Fgfr3^N534K/+ mice (hypochondroplasia mouse model); assay: Morris water maze (MWM), spatial memory, HCH mouse model; format: in vivo; conditions: bottle treatment 3 mg/L, 4 weeks; adult mice
Protocol: The Morris water maze (MWM) is a test of spatial learning for mice that relies on distal cues to navigate from a start location to locate a submerged escape platform. Spatial learning is assessed across repeated trials during 8 days and reference memory is determined by location of the platform area. To confirm the direct implication of brain FGFR3 in cognitive disorders observed in Fgfr3^N534K/+ mice, we decided to treat mice with (−)-epicatechin bottle treatment. The animals were treated with bottle (−)-epicatechin (3 mg/L) during 4 weeks before behavioural tests.

[3] = biological target: FGFR3 (Homo sapiens, UniProt P22607); conditions: reason for selection; no test described; cited from earlier work
Chain of FGFR3 (P22607 23-806): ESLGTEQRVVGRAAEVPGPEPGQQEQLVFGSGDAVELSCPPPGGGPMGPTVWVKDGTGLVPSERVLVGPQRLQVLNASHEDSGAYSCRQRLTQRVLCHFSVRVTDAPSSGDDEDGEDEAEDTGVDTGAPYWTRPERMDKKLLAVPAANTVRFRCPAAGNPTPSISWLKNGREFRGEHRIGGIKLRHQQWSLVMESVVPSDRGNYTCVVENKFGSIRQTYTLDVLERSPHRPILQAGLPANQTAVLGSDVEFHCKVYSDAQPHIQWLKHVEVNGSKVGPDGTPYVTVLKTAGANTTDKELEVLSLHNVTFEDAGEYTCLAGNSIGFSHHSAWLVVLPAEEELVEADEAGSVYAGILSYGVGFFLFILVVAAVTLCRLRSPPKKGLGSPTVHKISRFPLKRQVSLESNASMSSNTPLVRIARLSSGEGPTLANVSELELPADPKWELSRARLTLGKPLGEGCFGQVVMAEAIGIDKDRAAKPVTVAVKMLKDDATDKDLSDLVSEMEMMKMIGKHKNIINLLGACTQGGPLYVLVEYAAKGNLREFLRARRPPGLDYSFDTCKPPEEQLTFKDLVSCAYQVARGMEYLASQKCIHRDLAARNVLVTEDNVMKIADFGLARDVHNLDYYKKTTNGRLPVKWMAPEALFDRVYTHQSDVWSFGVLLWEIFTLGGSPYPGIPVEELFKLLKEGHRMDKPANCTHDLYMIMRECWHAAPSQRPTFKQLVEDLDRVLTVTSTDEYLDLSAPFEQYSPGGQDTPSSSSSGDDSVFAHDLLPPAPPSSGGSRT

[4] = tested on: Fgfr3^A385E/+ mice (CAN mouse model); assay: Forced swim test (FST), CAN mouse model; format: in vivo; conditions: subcutaneous injections for 7 days at least; 4-month-old mice
Protocol: (§4) 4 months old Fgfr3^N534K/+ mice and Fgfr3^A385E/+ mice received daily subcutaneous administration of (−)-epicatechin (0.15 mg/kg) or vehicle (HcL 3.5 mM, DMSO 2%) for at least seven days. For habituation and testing NOR and NOL, injection was performed 1 hour before testing phase. Timing of injection for the different tests: NOL at 7 days, NOR at 14 days, TST: at 22 days and FST at 24 days. This test is based on a similar observation than the TST. Each mouse is placed in a cylinder (height: 25 cm and diameter: 10 cm) filled with water (23-25° C.). Mice were tested for 5 min, and the time spent immobile (behavioral despair) was quantified.

[5] = tested on: Fgfr3^Y367C/+ mouse model; conditions: cited from earlier work
[6] = tested on: Fgfr3^N534K/+ mice (hypochondroplasia mouse model); assay: Novel object location (NOL), spatial memory, HCH mouse model; format: in vivo
Protocol: 4 months old Fgfr3^N534K/+ mice and Fgfr3^A385E/+ mice received daily subcutaneous administration of (−)-epicatechin (0.15 mg/kg) or vehicle (HcL 3.5 mM, DMSO 2%) for at least seven days. For habituation and testing NOR and NOL, injection was performed 1 hour before testing phase. Timing of injection for the different tests: NOL at 7 days, NOR at 14 days, TST: at 22 days and FST at 24 days. For the novel object location task, all procedures were identical to the novel object recognition task except that during the testing phase, rather than presenting a novel object, mice encountered both familiar objects, with one object located in a different place in the arena. The time and frequency of exploration of the novel/relocated object is measured as an index of memory. Behavior was scored on videos by two observers blind to treatment and the total exploration time of the objects was quantified in the testing phases. To confirm the direct implication of brain FGFR3 in cognitive disorders observed in Fgfr3^N534K/+ mice, we decided to treat mice with (−)-epicatechin bottle treatment. The animals were treated with bottle (−)-epicatechin (3 mg/L) during 4 weeks before behavioural tests.

[7] = tested on: Fgfr3^N534K/+ mice (hypochondroplasia mouse model); assay: Forced swim test (FST), HCH mouse model; format: in vivo; conditions: adult mice
Protocol: as §4, with “quantified. To confirm the direct implication of brain FGFR3 in cognitive disorders observed in Fgfr3^N534K/+ mice, we decided to treat mice with (−)-epicatechin bottle treatment. The animals were treated with bottle (−)-epicatechin (3 mg/L) during 4 weeks before behavioural tests.” for “quantified.”

[8] = tested on: Fgfr3^N534K/+ mice (hypochondroplasia mouse model); assay: Contextual fear conditioning (CFC), associative memory, HCH mouse model; format: in vivo; conditions: bottle treatment 3 mg/L, 4 weeks; adult mice
From the text: We performed on 4-month-old male mice a test related to the hippocampus associative memory (one-trial contextual fear conditioning, CFC). This test allows us to understand the ability of mice to remember an event associated with memory integration. During this behavorial test, we assess the freezing time of the mice, the mutant mice baseline was similar to control littermates during the training phase (p=0,2303). […] To confirm the direct implication of brain FGFR3 in cognitive disorders observed in Fgfr3^N534K/+ mice, we decided to treat mice with (−)-epicatechin bottle treatment. The animals were treated with bottle (−)-epicatechin (3 mg/L) during 4 weeks before behavioural tests.

[9] = tested on: Fgfr3^N534K/+ mice (hypochondroplasia mouse model); assay: Tail suspension test (TST), HCH mouse model; format: in vivo; conditions: bottle treatment 3 mg/L, 4 weeks; adult mice
Protocol: This test is based on the observation that rodents, after initial escape-oriented movements, develop an immobile posture when placed in an inescapable stressful situation. Each mouse is hung in an uncontrollable fashion by their tail at above 25 cm from the floor. Mice were tested for 5 min, and the time spent immobile was quantified. To confirm the direct implication of brain FGFR3 in cognitive disorders observed in Fgfr3^N534K/+ mice, we decided to treat mice with (−)-epicatechin bottle treatment. The animals were treated with bottle (−)-epicatechin (3 mg/L) during 4 weeks before behavioural tests.

[10] = tested on: Fgfr3^N534K/+ mice (hypochondroplasia mouse model); assay: Bar beam, locomotion and fine coordination, HCH mouse model; format: in vivo; conditions: bottle treatment 3 mg/L, 4 weeks; adult mice
From the text: The bar beam is a test to measure fine motor coordination and balance in mice by assessing if the mice stay upright and walk across an elevated narrow beam to a safe platform. This test takes place over 2 consecutive days and we measured the time it takes for the mouse to traverse the beam and the maximum distance done To confirm the direct implication of brain FGFR3 in cognitive disorders observed in Fgfr3^N534K/+ mice, we decided to treat mice with (−)-epicatechin bottle treatment. The animals were treated with bottle (−)-epicatechin (3 mg/L) during 4 weeks before behavioural tests.

[11] = tested on: Fgfr3^N534K/+ mice (hypochondroplasia mouse model); assay: Novel object recognition (NOR), episodic memory, HCH mouse model; format: in vivo
Protocol: as §1, §2, §3

[12] = subcutaneous injection, in vivo and/or in vitro
[13] = bottle treatment 3 mg/L, 4 weeks, adult mice

In the case of `Oc1cc(O)c2c(c1)O[C@H](c1ccc(O)c(O)c1)[C@H](O)C2` [(−)-epicatechin, (2R,3R)-2-(3,4-dihydroxyphenyl)-3,4-dihydro-2H-chromene-3,5,7-triol], the “memory deficits in the NOR paradigm” value [1] is listed as “reversed the memory deficits”, the “spatial memory deficits (Morrys Water Maze)” value [2] is listed as “rescue” and the “binding specificity for FGFR3” value [3] is listed as “highest binding specificity”. For the same compound, the “coping strategy to an inescapable stress (FST)” value [4] was “reestablished the coping strategy”, the “efficacy in skeletal anomalies” value ([5]; FGFR3 related Achondroplasia mouse model (Martin et al 2021)) was “showed the efficacy” and the “functional activation of the FGFR3 downstream signalling pathway” value [5, 12] was “sufficient to abolish or eliminating”. The “impairment of the ciliogenesis” value [5, 12] was “restore”, the “spatial memory deficits (NOL)” value [6, 13] was “rescue” and the “spatial memory deficits (NOL), exploration of relocated object” value ([6]; daily subcutaneous 0.15 mg/kg, at least seven days, 4 months old male mice, vs control littermates p=0,9538) was “sufficient to restore”. The “antidepressant effect (FST)” value ([7]; bottle treatment 3 mg/L, 4 weeks) was “rescue”, the antidepressant effect ([7]; subcutaneous injection, FST and TST of FIG. 1) was “rescue” and the “associative memory deficits (CFC)” value [8] was “rescue”. For the same compound, the “antidepressant effect (TST)” value [9] was “rescue”, the “locomotion and coordination fine (Bar beam)” value [10] was “rescue” and the “episodic memory deficits (NOR)” value [11, 13] was “rescue”. The “episodic memory deficits (NOR), exploration of novel object” value ([11]; daily subcutaneous 0.15 mg/kg, at least seven days, 4 months old male mice, vs control littermates p=0,8697) was “sufficient to restore”.
